A word on the EC50: it is the midpoint of the concentration-response curve. Read a high EC50 as weaker potency.

The target in the test is human 5-HT2C receptor (Homo sapiens, UniProt P28335, I156V/I160V/N158S). Nature of the test: cell-based.
human 5-HT2C receptor, sequence (P28335 33-458 I156V/N158S/I160V limits assumed): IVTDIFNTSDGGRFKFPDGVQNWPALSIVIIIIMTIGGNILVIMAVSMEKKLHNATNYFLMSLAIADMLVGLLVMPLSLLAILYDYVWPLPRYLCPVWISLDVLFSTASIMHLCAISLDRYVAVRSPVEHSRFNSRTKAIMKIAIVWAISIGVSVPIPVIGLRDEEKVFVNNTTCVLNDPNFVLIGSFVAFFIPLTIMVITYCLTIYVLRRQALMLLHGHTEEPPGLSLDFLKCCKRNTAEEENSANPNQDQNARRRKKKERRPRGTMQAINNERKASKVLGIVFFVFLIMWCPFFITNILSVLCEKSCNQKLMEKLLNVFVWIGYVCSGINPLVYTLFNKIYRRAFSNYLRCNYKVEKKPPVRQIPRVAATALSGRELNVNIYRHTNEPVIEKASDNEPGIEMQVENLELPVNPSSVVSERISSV
Take `O=C(C1CN(c2c3c(nc4ccnn24)CCNCC3)C1)N1CCN(c2ccccc2)CC1` [Example 37.34]: the EC50 worked out at 6 nM.

`O=C(C1CN(c2c3c(nc4ccnn24)CCNCC3)C1)N1CCCC(c2cccc(F)c2)C1` (centres unmarked) [Example 31.215] had an EC50 of 155 nM.

In the case of `CCn1c(C2CN(c3c4c(nc5ccnn35)CCNCC4)C2)nc2ccccc21` [Example 34.2], the half-maximal effective concentration (EC50) came out at 150 nM.

Compound `c1ccc(O[C@H]2CCN(c3c4c(nc5ccnn35)CCNCC4)C2)cc1` [Example 1.46] displayed an EC50 of 582 nM.

Compound `CC1CC(C)CN(C(=O)C2CN(c3c4c(nc5ccnn35)CCNCC4)C2)C1` (centres unmarked) [Example 31.22] yielded an EC50 of 85 nM.

Consider `Cc1ccc(F)c(OCC2CN(c3c4c(nc5ccnn35)CCNCC4)C2)c1F` [Example 15.24], for which the EC50 was 54 nM.

The compound `c1cc2nc3c(c(N4CCCCC4)n2n1)CCNCC3` [Example 7.2] showed an EC50 of 4560 nM.

Consider `CN(C)CCCN(C)C(=O)C1CN(c2c3c(nc4ccnn24)CCN(C)CC3)C1` [Example 36.55], for which the EC50 amounted to 87 nM.

With `CN(Cc1ccc(Cl)cc1)C(=O)C1CN(c2c3c(nc4ccnn24)CCNCC3)C1` [Example 31.40], a half-maximal effect (EC50) was put at 40 nM.

`COc1cc(Cl)ccc1OC1CN(c2c3c(nc4ccnn24)CCNCC3)C1` [Example 35.21] gave an EC50 of 75 nM.

Compound `O=C(C1CN(c2c3c(nc4ccnn24)CCNCC3)C1)N1CC2CC(c3ccccc3)(C2)C1` [Example 31.232] came in with an EC50 of 95 nM.

The compound `Cc1cccc(CN(C)C(=O)C2CN(c3c4c(nc5ccnn35)CCNCC4)C2)c1` [Example 31.49] gave an EC50 of 51 nM.

`Cc1ccc(Cl)c(OC2CN(c3c4c(nc5ccnn35)CCNCC4)C2)c1` [Example 35.29] had an EC50 of 114 nM.

In turn, `C=C1CCN(C(=O)C2CN(c3c4c(nc5ccnn35)CCNCC4)C2)CC1` [Example 31.229] had an EC50 of 108 nM.

`CN1CCc2nc3ccnn3c(N3CC(C(=O)N4CCNC(=O)C4)C3)c2CC1` [Example 36.14] gave an EC50 of 364 nM.

`Cn1c(=O)ccc2c(OC3CN(c4c5c(nc6ccnn46)CCNCC5)C3)cccc21` [Example 35.1] gave a concentration giving a half-maximal response (EC50) of 41 nM.

With `c1csc(COC2CN(c3c4c(nc5ccnn35)CCNCC4)C2)n1` [Example 20.14], the concentration for a half-maximal effect (EC50) is 23 nM.

The compound `O=C(C1CN(c2c3c(nc4ccnn24)CCNCC3)C1)N1CCCC2(CCc3ccccc32)C1` (centres unmarked) [Example 31.173] yielded a concentration giving a half-maximal response (EC50) of 440 nM.

`CCCCNC(=O)C1CN(c2c3c(nc4ccnn24)CCNCC3)C1` [Example 37.72] displayed an EC50 of 91 nM.

For `O=C(C1CN(c2c3c(nc4ccnn24)CCNCC3)C1)N1CCN(C2CCOCC2)CC1` [Example 37.31], the EC50 came to 7 nM.

In the case of `CCC1CCC(C)N(C(=O)C2CN(c3c4c(nc5ccnn35)CCNCC4)C2)C1` (centres unmarked) [Example 31.184], the EC50 is 287 nM.

Regarding `O=C(C1CN(c2c3c(nc4ccnn24)CCNCC3)C1)N1CC=CCC1` [Example 31.178], the half-maximal effective concentration (EC50) worked out at 109 nM.

Consider `O=C(C1CN(c2c3c(nc4ccnn24)CCNCC3)C1)N1CCC(c2ccccc2)CC1` [Example 31.63], for which the EC50 stood at 31 nM.

`O=C(C1CN(c2c3c(nc4ccnn24)CCNCC3)C1)N1CCC(O)(c2cccc(C(F)(F)F)c2)CC1` [Example 31.226] returned an EC50 of 74 nM.

On to `CC1CCCCN1C(=O)C1CN(c2c3c(nc4ccnn24)CCNCC3)C1` (centres unmarked) [Example 31.62], for which the EC50 came out at 925 nM.

`O=C(C1CN(c2c3c(nc4ccnn24)CCNCC3)C1)N1CCCC(F)(F)CC1` [Example 40, (4,4-Difluoro-perhydro-azepin-1-yl)-[1-(6,7,8,9-tetrahydro-5H-1,4,7,10a-tetraaza-cyclohept[f]inden-10-yl)-azetidin-3-yl]-methanone]: it took 6 nM to reach a half-maximal effect (EC50).

For `COc1cccc(OC2CN(c3c4c(nc5ccnn35)CCNCC4)C2)c1Cl` [Example 35.33], the EC50 turned out to be 90 nM.

As for `CN(C)C1CCN(C(=O)C2CN(c3c4c(nc5ccnn35)CCNCC4)C2)CC1` [Example 37.2], a half-maximal effect (EC50) was put at 1 nM.

The compound `CC(C)C1CCN(C(=O)C2CN(c3c4c(nc5ccnn35)CCNCC4)C2)CC1` [Example 31.85] had an EC50 of 23 nM.

`CN1CCc2nc3ccnn3c(N3CC(C(=O)N4CCCN(C)CC4)C3)c2CC1` [Example 36.12] displayed an EC50 of 73 nM.

`Cc1ccc(OC2CN(c3c4c(nc5ccnn35)CCNCC4)C2)cn1` [Example 35.52] showed an EC50 of 147 nM.

In the case of `O=C(CC1CN(c2c3c(nc4ccnn24)CCNCC3)C1)N1CCc2cc(F)ccc21` [Example 33.2], the response was half-maximal at 20 nM (EC50).

`Cc1cnn2c(N3CC(C(=O)N4CCC(c5ccccc5F)CC4)C3)c3c(nc12)CCNCC3` [Example 31.243]: the response was half-maximal at 82 nM (EC50).

For the compound `O=C(C1CN(c2c3c(nc4ccnn24)CCNCC3)C1)N1CCC2(CCCCC2)C1` [Example 31.48], the EC50 came out at 38 nM.

For `O=C(C1CN(c2c3c(nc4ccnn24)CCNCC3)C1)N1CC(Cc2ccccc2)C1` [Example 31.119], the EC50 amounted to 82 nM.

For `CN1CCc2nc3ccnn3c(N3CC(C(=O)N4CCN(CC5CC5)CC4)C3)c2CC1` [Example 36.18], the EC50 worked out at 77 nM.

Regarding `CC(C)NC1CCN(C(=O)C2CN(c3c4c(nc5ccnn35)CCNCC4)C2)CC1` [Example 37.21], the 50% effective concentration (EC50) amounted to 2 nM.

On to `Cn1c(C2CN(c3c4c(nc5ccnn35)CCNCC4)C2)nc2cc(C#N)ccc21` [Example 34.18], for which the EC50 was found to be 388 nM.

As to `O=C(C1CN(c2c3c(nc4ccnn24)CCNCC3)C1)N1CCc2ccc(Br)cc2C1` [Example 31.209], a half-maximal response (EC50) required 95 nM.

In turn, `Fc1cc(Cl)ccc1OCC1CN(c2c3c(nc4ccnn24)CCNCC3)C1` [Example 15.12] yielded an EC50 of 9 nM.

In turn, `CN(c1ccccc1)C1CCN(C(=O)C2CN(c3c4c(nc5ccnn35)CCNCC4)C2)CC1` [Example 37.46] displayed an EC50 of 2 nM.

With `O=C(NC1CCCCC1C(F)(F)F)C1CN(c2c3c(nc4ccnn24)CCNCC3)C1` (centres unmarked) [Example 37.58], the concentration for a half-maximal effect (EC50) came to 224 nM.

Compound `c1ccc2cc(OC3CN(c4c5c(nc6ccnn46)CCNCC5)C3)ccc2c1` [Example 35.46] gave a half-maximal effective concentration (EC50) of 495 nM.

`O=C(C1CN(c2c3c(nc4ccnn24)CCNCC3)C1)N1CCCC(C2CCCCC2)C1` (centres unmarked) [Example 31.70] displayed an EC50 of 175 nM.

Turning to `Cc1ccc(OCC2CN(c3c4c(nc5ccnn35)CCNCC4)C2)c(F)c1F` [Example 15.10], the EC50 stood at 20 nM.

Regarding `c1ccc(OCC2CN(c3c4c(nc5ccnn35)CCNCC4)C2)cc1` [Example 15.17], the 50% effective concentration (EC50) was determined as 31 nM.

With `CCc1cnn2c(N3CCC3)c3c(nc12)CCNCC3` [Example 25.2], the midpoint of the response, the EC50, lay at 12 nM.

Consider `O=C(C1CN(c2c3c(nc4ccnn24)CCNCC3)C1)N1CC2CC2(c2cccs2)C1` (centres unmarked) [Example 31.231], for which a half-maximal response (EC50) required 27 nM.

`COc1ccccc1CN(C)C(=O)C1CN(c2c3c(nc4ccnn24)CCNCC3)C1` [Example 31.51] gave an EC50 of 85 nM.

With `O=C(NCCC(F)(F)F)C1CN(c2c3c(nc4ccnn24)CCNCC3)C1` [Example 37.63], the EC50 is 84 nM.

Consider `O=C(NCC1CC1)C1CN(c2c3c(nc4ccnn24)CCNCC3)C1` [Example 37.75], for which the EC50 worked out at 137 nM.

Consider `O=C(C1CN(c2c3c(nc4ccnn24)CCNCC3)C1)N1CC2CCCC2C1` (centres unmarked) [Example 31.166], for which the response was half-maximal at 97 nM (EC50).

Consider `Cc1cccnc1CN(C)C(=O)C1CN(c2c3c(nc4ccnn24)CCNCC3)C1` [Example 31.196], for which the midpoint of the response, the EC50, lay at 195 nM.

Consider `Cn1c(C2CN(c3c4c(nc5ccnn35)CCNCC4)C2)nc2cc(Cl)ccc21` [Example 34.3], for which a half-maximal effect (EC50) was put at 418 nM.

In turn, `O=C(NC1CCc2ccccc21)C1CN(c2c3c(nc4ccnn24)CCNCC3)C1` (centres unmarked) [Example 31.32] came in with an EC50 of 49 nM.

`O=C(NCCc1ccccc1)C1CN(c2c3c(nc4ccnn24)CCNCC3)C1` [Example 31.21]: the EC50 was determined as 727 nM.

`COc1cccc(OCC2CN(c3c4c(nc5ccnn35)CCNCC4)C2)c1` [Example 15.20] returned an EC50 of 26 nM.

Consider `CN1CCc2nc3ccnn3c(N3CC(C(=O)NC4CC(C)(C)N(C)C(C)(C)C4)C3)c2CC1` [Example 36.25], for which the EC50 was 202 nM.

The compound `N#CC1CCN(C(=O)C2CN(c3c4c(nc5ccnn35)CCNCC4)C2)C1` (centres unmarked) [Example 31.159] showed an EC50 of 32 nM.

`O=C(C1CCCCC1)N1CCN(C(=O)C2CN(c3c4c(nc5ccnn35)CCNCC4)C2)CC1` [Example 37.101] displayed an EC50 of 70 nM.

On to `COc1cccc(F)c1OCC1CN(c2c3c(nc4ccnn24)CCNCC3)C1` [Example 15.23], for which it took 47 nM to reach a half-maximal effect (EC50).

With `Cc1ccccc1OC1CN(c2c3c(nc4ccnn24)CCNCC3)C1` [Example 35.5], a half-maximal effect (EC50) was put at 112 nM.

Consider `O=C(N1CCOCC1)C1(c2ccccc2)CCN(c2c3c(nc4ccnn24)CCNCC3)CC1` [Example 1.54], for which the EC50 came out at 1640 nM.

The compound `CC1CCCN(C(=O)C2CN(c3c4c(nc5ccnn35)CCNCC4)C2)C1` (centres unmarked) [Example 31.1] had an EC50 of 89 nM.

As for `CC1(C)CCCN(C(=O)C2CN(c3c4c(nc5ccnn35)CCNCC4)C2)C1` [Example 31.30], the concentration giving a half-maximal response (EC50) was determined as 338 nM.

As for `O=C(NCc1ccccc1)C1CCN(c2c3c(nc4ccnn24)CCNCC3)CC1` [Example 1.24], it took 1310 nM to reach a half-maximal effect (EC50).

The compound `CN(C(=O)C1CN(c2c3c(nc4ccnn24)CCNCC3)C1)C1CCCc2ccccc21` (centres unmarked) [Example 31.171] gave a half-maximal effective concentration (EC50) of 967 nM.

As to `O=C(C1CN(c2c3c(nc4ccnn24)CCNCC3)C1)N1CCC(F)(F)C1` [Example 31.148], the EC50 was found to be 19 nM.

`CCCCn1c(C2CN(c3c4c(nc5ccnn35)CCNCC4)C2)nc2ccccc21` [Example 34.26] returned an EC50 of 1150 nM.

The compound `CC(CC1CCCCC1)NC(=O)C1CN(c2c3c(nc4ccnn24)CCNCC3)C1` (centres unmarked) [Example 37.108] showed a half-maximal effective concentration (EC50) of 72 nM.

`O=C(C1CN(c2c3c(nc4ccnn24)CCNCC3)C1)N1CCC(F)(F)CC1` [Example 31.203] returned an EC50 of 67 nM.

In turn, `CN(Cc1cccc2ccccc12)C(=O)C1CN(c2c3c(nc4ccnn24)CCNCC3)C1` [Example 31.76] came in with an EC50 of 81 nM.

Turning to `CC1(C)CC(NC(=O)C2CN(c3c4c(nc5ccnn35)CCNCC4)C2)CC(C)(C)N1` [Example 37.7], the EC50 was found to be 15 nM.

The compound `CN(C(=O)C1CN(c2c3c(nc4ccnn24)CCNCC3)C1)c1ccccc1` [Example 31.5] gave an EC50 of 742 nM.

Source of the values: patent US20120165304A1, “6,7,8,9-Tetrahydro-5H-1,4,7,10a-tetraaza-cyclohept[f]indene derivatives, pharmaceutical compositions containing these compounds, their use and processes for preparing them” (BOEHRINGER INGELHEIM INTERNATIONAL GMBH, priority 2008, published 2012).
